Assay results taken from US11331299B2, “Medicinal use of serrulatane diterpenes” (The University of Sydney, priority 2016, dated 2022).

Tests used:
[1] = target: T1, L3MBTL3 (h) MBT domain (Homo sapiens, UniProt Q96JM7); assay: Epigenetic binding assay, MBT domain; conditions: read-out: % Inhibition of Control Specific Binding
T1 construct: Tudor, MBT and chromo domains gauge the degree of lysine methylation; Eurofins CEREP (France), contract laboratory
T1 sequence (Q96JM7 225-555 limits assumed): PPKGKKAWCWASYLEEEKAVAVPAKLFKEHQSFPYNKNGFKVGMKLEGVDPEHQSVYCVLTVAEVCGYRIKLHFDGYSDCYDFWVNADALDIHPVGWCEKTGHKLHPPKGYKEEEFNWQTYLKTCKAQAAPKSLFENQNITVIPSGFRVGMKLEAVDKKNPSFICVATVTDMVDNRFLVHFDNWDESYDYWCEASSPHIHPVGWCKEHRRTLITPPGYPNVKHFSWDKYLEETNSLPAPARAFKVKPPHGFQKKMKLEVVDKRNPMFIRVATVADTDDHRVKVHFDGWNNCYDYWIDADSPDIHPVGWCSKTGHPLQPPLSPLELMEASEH

[2] = target: PIM1(h) (histone H3 full length substrate) (Homo sapiens, UniProt P11309); assay: Epigenetic enzyme assay, Kinases; format: biochemical; conditions: read-out: % Inhibition of Control Values
Chain of PIM1(h) (histone H3 full length substrate) (P11309 whole entry): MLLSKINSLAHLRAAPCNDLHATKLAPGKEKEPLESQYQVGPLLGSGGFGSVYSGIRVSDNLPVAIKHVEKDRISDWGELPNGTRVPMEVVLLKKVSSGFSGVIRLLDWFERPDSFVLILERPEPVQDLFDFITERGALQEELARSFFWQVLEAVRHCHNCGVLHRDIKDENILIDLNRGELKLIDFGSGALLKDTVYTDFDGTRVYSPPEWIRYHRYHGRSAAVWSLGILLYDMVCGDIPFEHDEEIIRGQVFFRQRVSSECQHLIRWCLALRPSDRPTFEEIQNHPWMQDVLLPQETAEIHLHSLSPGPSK

[3] = target: T2, Protein Tyrosine Phosphatase, PTPN1 (PTP1B) (Homo sapiens, UniProt P18031); assay: Protein Tyrosine Phosphatase, PTPN1 (PTP1B); format: biochemical; conditions: assay year 2015, read-out: % Control Response
T2 construct: host or cells: E. coli
T2 sequence (P18031 1-435): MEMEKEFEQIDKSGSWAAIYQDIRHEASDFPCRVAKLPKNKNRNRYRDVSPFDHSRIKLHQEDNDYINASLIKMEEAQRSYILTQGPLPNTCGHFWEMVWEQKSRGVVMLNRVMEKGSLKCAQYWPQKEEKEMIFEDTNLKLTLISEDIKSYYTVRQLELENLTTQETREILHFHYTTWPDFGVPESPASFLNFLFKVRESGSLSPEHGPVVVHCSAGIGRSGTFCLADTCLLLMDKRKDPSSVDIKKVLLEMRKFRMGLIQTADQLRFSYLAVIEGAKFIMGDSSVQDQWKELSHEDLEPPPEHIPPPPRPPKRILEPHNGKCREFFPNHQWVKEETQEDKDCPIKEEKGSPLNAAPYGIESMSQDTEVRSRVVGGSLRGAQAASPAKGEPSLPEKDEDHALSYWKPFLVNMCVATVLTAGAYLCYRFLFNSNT
Method: (§1) The in vitro pharmacological studies were conducted by Eurofins PanLab (Taiwan) using the parameters shown in Table 13 with respect to appropriate literature references.

[4] = target: T3, CECR2 (h) bromodomain (Homo sapiens, UniProt Q9BXF3); assay: Epigenetic binding assay, Bromodomain; conditions: for inhibition at 10 µM: read-out: % Inhibition of Control Specific Binding
T3 construct: CECR2(h) bromodomain
T3 sequence (Q9BXF3 434-538 limits assumed): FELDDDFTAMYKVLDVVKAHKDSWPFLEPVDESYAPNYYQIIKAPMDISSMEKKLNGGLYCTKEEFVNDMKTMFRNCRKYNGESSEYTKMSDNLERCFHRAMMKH

[5] = target: T4, Chemokine CXCR2 (IL-8RB) (Homo sapiens, UniProt P25025); assay: Chemokine CXCR2 (IL-8RB) radio ligand binding; conditions: assay year 2015
T4 construct: expressed in transfected cells; host or cells: CHO-K1 cells
T4 sequence (P25025 1-360): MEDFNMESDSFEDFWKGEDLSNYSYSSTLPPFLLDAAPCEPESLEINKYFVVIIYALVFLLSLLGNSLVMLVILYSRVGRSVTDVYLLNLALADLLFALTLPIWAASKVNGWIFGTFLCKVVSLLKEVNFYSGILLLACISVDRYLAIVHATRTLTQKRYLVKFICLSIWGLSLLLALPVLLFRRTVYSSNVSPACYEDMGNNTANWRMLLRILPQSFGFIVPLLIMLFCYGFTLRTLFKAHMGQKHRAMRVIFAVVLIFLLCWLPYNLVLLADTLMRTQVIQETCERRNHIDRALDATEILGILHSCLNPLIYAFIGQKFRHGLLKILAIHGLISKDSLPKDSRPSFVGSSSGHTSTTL
Method: as §1

[6] = target: T5, sirtuin 1 (h) (inhibitor effect) (Homo sapiens, UniProt Q96EB6); assay: Epigenetic enzyme assay, Sirtuins; format: biochemical; conditions: read-out: % Inhibition of Control Values
T5 sequence (Q96EB6 1-747): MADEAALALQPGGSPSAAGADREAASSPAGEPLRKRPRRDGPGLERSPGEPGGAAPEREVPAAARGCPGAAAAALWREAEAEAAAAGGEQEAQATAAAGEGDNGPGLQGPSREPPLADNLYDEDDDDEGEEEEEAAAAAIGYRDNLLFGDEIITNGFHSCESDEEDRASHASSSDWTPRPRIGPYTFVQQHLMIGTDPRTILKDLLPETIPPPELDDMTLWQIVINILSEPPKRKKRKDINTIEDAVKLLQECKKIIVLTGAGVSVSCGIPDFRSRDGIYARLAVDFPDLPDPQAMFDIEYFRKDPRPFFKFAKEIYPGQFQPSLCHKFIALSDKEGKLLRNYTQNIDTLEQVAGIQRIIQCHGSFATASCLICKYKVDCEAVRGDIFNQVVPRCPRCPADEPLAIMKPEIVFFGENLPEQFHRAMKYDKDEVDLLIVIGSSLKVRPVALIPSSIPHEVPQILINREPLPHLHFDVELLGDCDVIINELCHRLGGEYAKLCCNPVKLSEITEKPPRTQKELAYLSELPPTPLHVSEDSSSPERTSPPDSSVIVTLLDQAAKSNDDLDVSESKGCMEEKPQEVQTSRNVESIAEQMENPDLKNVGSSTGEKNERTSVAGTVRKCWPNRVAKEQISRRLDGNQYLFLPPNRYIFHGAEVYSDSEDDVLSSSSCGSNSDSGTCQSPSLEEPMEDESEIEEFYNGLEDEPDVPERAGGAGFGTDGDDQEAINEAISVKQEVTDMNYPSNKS

Compound | inhibition at 10 µM [1] | inhibition at 10 µM [2] | remaining activity at 10 µM [3] | inhibition at 10 µM ([4]; 10 μM) | % control response at 10 µM [5] | inhibition at 10 µM [6] | also measured
CC(C)=CCC[C@H](CO)[C@@H]1CC[C@@H](C)c2c1cc(C)c(O)c2O [Compound 1, 7,8,18-trihydroxyserrulat-14-ene] | 22% | 22% | 20% | 100% | 12% | 2% | % Inhibition of Control Specific Binding ([4]; 10 μM): significant inhibitory activity; inhibition of binding, 1st ([4]; 3.0E−05M): 99.4; inhibition of binding, 2nd ([4]; 3.0E−05M): 99.6; inhibition of binding, Mean ([4]; 3.0E−05M): 99.5; inhibition of binding, 1st ([4]; 3.0E−06M): 7.3; inhibition of binding, 2nd ([4]; 3.0E−06M): 8.6; inhibition of binding, Mean ([4]; 3.0E−06M): 7.9; inhibition of binding, 1st ([4]; 3.0E−07M): −1.5; inhibition of binding, 2nd ([4]; 3.0E−07M): 0.9; inhibition of binding, Mean ([4]; 3.0E−07M): −0.3; inhibition of binding, 1st ([4]; 3.0E−08M): −0.9; inhibition of binding, 2nd ([4]; 3.0E−08M): −1.7; inhibition of binding, Mean ([4]; 3.0E−08M): −1.3; inhibition of binding, 1st ([4]; 3.0E−09M): 5.9; inhibition of binding, 2nd ([4]; 3.0E−09M): 2.4; inhibition of binding, Mean ([4]; 3.0E−09M): 4.2; IC50 ([4]; Table 9, inhibition/concentration-response curve): 5 µM
CC(C)=CCC[C@@H]1C(O)Oc2c(C)cc(O)c3c2[C@H]1CC[C@H]3C (some centres unmarked) [Compound 2, 5,18-epoxyserrulat-14-en-8,18-diol] | 29% | 11% | 3% | 25% | -7% | -3% | 
CC(C)=CCC[C@@H]1COc2c(C)cc(O)c3c2[C@H]1CC[C@H]3C [Compound 3, 5,18-epoxy-8-hydroxyserrulat-14-ene] | 33% | 5% | -3% | 15% | 1% | -5% | 
